Experimental data: patent US6277876A, “Matrix metalloproteinase inhibitors” (Leo Pharmaceutical Products Ltd. A/S, priority 1998, dated 2001)

What was measured:
[1] = biological target: T1, MMP-9 (Homo sapiens, UniProt P14780); assay: In vitro inhibition of MMPs by gelatine zymography (MMP-9); type: biochemical; conditions: concentration that inhibited approximately half of the maximal enzymatic activity; MMPs from MCF-7 conditioned media in gelatine SDS gels, incubated overnight at 37° C., pH 7.5; read-out: In vitro inhibition of matrix metalloproteinases (nM) MMP-9
T1 construct: matrix metalloproteinases were obtained from culture media conditioned by MCF-7 human breast cancer cells; endogenous in cells; host or cells: MCF-7 human breast cancer cells (conditioned culture medium)
Method: (§1) The compounds were tested in vitro using the following procedure: matrix metalloproteinases were obtained from culture media conditioned by MCF-7 human breast cancer cells and separated by electrophoresis on SDS-acrylamide gels (7.0%) copolymerised with gelatine (1 mg/ml, Sigma, Mo., USA). The gels containing the MMPs were then incubated with the test compounds overnight in 10 ml buffer (50 mM tris-HCl, pH 7.5, 200 mM NaCl, 5 mM CaCl2, 1 μM ZnCl2, 0.002% NaN3) at 37° C. The gels were stained for 60 min with 0.5% Coomassie brilliant blue R-250 in 10% acetic acid, destained with 10% acetic acid, incubated with 5% glycerol, and dried with a gel drier. The molar concentrations that inhibited approximately half of the maximal enzymatic activity were then determined.

[2] = tested on: MMP-2/3; assay: In vitro inhibition of MMPs by gelatine zymography (MMP-2/3); type: biochemical, human; conditions: concentration that inhibited approximately half of the maximal enzymatic activity; MMPs from MCF-7 conditioned media in gelatine SDS gels, incubated overnight at 37° C., pH 7.5; read-out: In vitro inhibition of matrix metalloproteinases (nM) MMP-2/3
Method: as §1

T1 sequence (P14780 94-707): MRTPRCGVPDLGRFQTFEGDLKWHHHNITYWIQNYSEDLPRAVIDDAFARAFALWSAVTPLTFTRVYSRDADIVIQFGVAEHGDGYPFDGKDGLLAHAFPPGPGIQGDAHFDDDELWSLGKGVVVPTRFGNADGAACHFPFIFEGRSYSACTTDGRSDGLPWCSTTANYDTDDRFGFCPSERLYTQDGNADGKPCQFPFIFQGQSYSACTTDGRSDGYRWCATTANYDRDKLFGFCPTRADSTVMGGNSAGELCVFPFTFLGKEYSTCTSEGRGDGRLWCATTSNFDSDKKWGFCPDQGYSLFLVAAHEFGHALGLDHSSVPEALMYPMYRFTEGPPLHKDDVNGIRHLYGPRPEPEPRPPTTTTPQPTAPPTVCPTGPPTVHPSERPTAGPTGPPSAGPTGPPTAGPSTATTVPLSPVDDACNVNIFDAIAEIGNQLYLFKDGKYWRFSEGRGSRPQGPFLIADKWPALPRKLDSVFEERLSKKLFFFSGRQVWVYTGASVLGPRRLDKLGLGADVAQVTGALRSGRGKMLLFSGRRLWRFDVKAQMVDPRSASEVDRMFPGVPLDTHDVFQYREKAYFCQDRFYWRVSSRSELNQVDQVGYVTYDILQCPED

IC50 [1] [nM] | IC50 [2] [nM] | Structure (SMILES)
10 | – | CNC(=O)[C@H](Cc1ccccc1)NC(=O)[C@@H](CC(=O)NO)CC(C)C [Comparator 1, N^1 -Hydroxy-3R-isobutyl-N^4-[1S-(methylcarbamoyl)-2-phenylethyl]-succinamide, reference compound]
1 | 1 | CNC(=S)[C@H](Cc1ccccc1)NC(=O)[C@@H](CC(=O)NO)CC(C)C [Example 3, N^4 -Hydroxy-2(R)-isobutyl-N^1-[1(S)-(methylthiocarbamoyl)-2-phenylethyl]-succinamide]
1 | 1 | CNC(=S)[C@H](Cc1ccccc1)NC(=O)[C@H](CCCc1ccccc1)CC(=O)NO [Example 4, N^4 -Hydroxy-N^1-[1(S)-(methylthiocarbamoyl)-2-Rhenylethyl]-2(R)-phenylpropyl-succinamide]
1 | 1 | O=C(C[C@@H](CCCc1ccccc1)C(=O)N[C@@H](Cc1ccccc1)C(=S)NCCCc1ccccc1)NO [Example 5]
